Assay results taken from the NIST ThermoML archive (doi:10.1016/j.jct.2019.105878).
Numbers after ± are expanded uncertainties.

Experiment: osmotic coefficient (dimensionless); mn = molality of the nth substance listed, in mol/kg
Settings: 298.15 K, 97.5 kPa, Liquid, vapour pressure osmometry

O=Cc1ccc(CO)o1 [5-(hydroxymethyl)furan-2-carbaldehyde] + O
Settings	osmotic coefficient
m1 = 0.496	0.85 ± 0.024
m1 = 0.991	0.73 ± 0.022
m1 = 1.483	0.635 ± 0.021
m1 = 1.98	0.572 ± 0.022
m1 = 2.473	0.521 ± 0.022
m1 = 2.967	0.462 ± 0.023
m1 = 3.459	0.442 ± 0.023
m1 = 3.95	0.396 ± 0.024
m1 = 4.444	0.378 ± 0.024
m1 = 4.935	0.37 ± 0.024
